Values joined by “and” are separate entries in the source; they are usually repeats but may differ in a detail not shown here. Equal entries are not always repeated.
Assay: Single-dose pharmacokinetics of T+Ai pellet implant (80 mg testosterone + 4 mg anastrozole, subcutaneous)
Conditions: for concentration at 24 h: 24 h post-dose
Procedure: The premenopausal women were aged between 35 and 55 years of age with a BMI range of 20-30 kg/m^2. […] The implant was intended to be left in situ and was expected to be almost completely absorbed within three months following insertion.
A total of 11 subjects were dosed with the implant and included in the safety analysis set. All 11 subjects were included in the pharmacokinetics (PK) analysis set.
(NB: the sample collection time point at 6 hours post-dose was added for the third and subsequent subject and so serum measurements were not determined for the first two subjects as noted below).
Patients seeking treatment with the T+Ai for reduction in high MBD were eligible for the study. Following successful screening, subjects attended the Wellend Health Clinic for dosing. The trial was designed to dose all subjects while in the luteal phase of their menstrual cycle to avoid the highly changing hormonal environment of the follicular phase. Following insertion of the implant, PK blood sampling was carried out for a duration of three months (see below). Briefly, samples were taken repeatedly on the day of dosing, daily during the first week, weekly for the next four weeks and every second week during the last eight weeks of a total sampling period of three months.
The sampling schedule was revised with the addition of one blood sample (at 6 hours post-dose as discussed above), and no adjustment of the timing of existing time points was made. The duration of sampling was not extended.
Following dosing on Day 1, blood samples were taken pre-dose (within one hour of dosing) and at 1, 2, 4, 6, 8 and 12 hours. Participants returned for a blood sample to be taken at 9 am in the morning on Days 2, 3, 4, 5, 8, 15, 22, 29, 43, 57, 71 and 85.

CC(C)(C#N)c1cc(Cn2cncn2)cc(C(C)(C)C#N)c1 [Anastrozole, 2,2′-[5-(1H-1,2,4-triazol-1-ylmethyl)-1,3-phenylene]bis(2-methylpropanenitrile)]
anastrozole level versus conventional full oral dosing (compared with conventional full oral dosing): 5 times lower | Tmax (human, in vivo, sc, 4 mg): 24 to 72 h | concentration at 1008 h (human, in vivo, sc, 4 mg, Measured serum anastrozole, GeoMean, geometric mean (BLQ excluded), 1008 h post-dose): 0.49 ng/mL | concentration at 1344 h (human, in vivo, sc, 4 mg, Measured serum anastrozole, GeoMean, geometric mean (BLQ excluded), 1344 h post-dose): 0.3 ng/mL | concentration at 1680 h (human, in vivo, sc, 4 mg, Measured serum anastrozole, GeoMean, geometric mean (BLQ excluded), 1680 h post-dose): 0.26 ng/mL | concentration at 2016 h (human, in vivo, sc, 4 mg, Measured serum anastrozole, GeoMean, geometric mean (BLQ excluded), 2016 h post-dose): 0.21 ng/mL | concentration at 1 h (human, in vivo, sc, 4 mg, Measured serum anastrozole, GeoMean, geometric mean, 1 h post-dose): 0.35 ng/mL | concentration at 2 h (human, in vivo, sc, 4 mg, Measured serum anastrozole, GeoMean, geometric mean, 2 h post-dose): 0.61 ng/mL | concentration at 4 h (human, in vivo, sc, 4 mg, Measured serum anastrozole, GeoMean, geometric mean, 4 h post-dose): 1.15 ng/mL | concentration at 6 h (human, in vivo, sc, 4 mg, Measured serum anastrozole, GeoMean, geometric mean, 6 h post-dose): 2.31 ng/mL | concentration at 8 h (human, in vivo, sc, 4 mg, Measured serum anastrozole, GeoMean, geometric mean, 8 h post-dose): 3.23 ng/mL | concentration at 12 h (human, in vivo, sc, 4 mg, Measured serum anastrozole, GeoMean, geometric mean, 12 h post-dose): 3.97 ng/mL | concentration at 24 h (human, in vivo, sc, 4 mg, Measured serum anastrozole, GeoMean, geometric mean): 4.77 ng/mL | concentration at 48 h (human, in vivo, sc, 4 mg, Measured serum anastrozole, GeoMean, geometric mean, 48 h post-dose): 4.98 ng/mL | concentration at 72 h (human, in vivo, sc, 4 mg, Measured serum anastrozole, GeoMean, geometric mean, 72 h post-dose): 4.92 ng/mL | concentration at 96 h (human, in vivo, sc, 4 mg, Measured serum anastrozole, GeoMean, geometric mean, 96 h post-dose): 4.58 ng/mL | concentration at 168 h (human, in vivo, sc, 4 mg, Measured serum anastrozole, GeoMean, geometric mean, 168 h post-dose): 3.5 ng/mL | concentration at 504 h (human, in vivo, sc, 4 mg, Measured serum anastrozole, GeoMean, geometric mean, 504 h post-dose): 1.42 ng/mL | concentration at 24 h (human, in vivo, sc, 4 mg, Measured serum anastrozole, individual subject): 6.08 ng/mL | concentration at 48 h (human, in vivo, sc, 4 mg, Measured serum anastrozole, individual subject, 48 h post-dose): 6.17 ng/mL | concentration at 72 h (human, in vivo, sc, 4 mg, Measured serum anastrozole, individual subject, 72 h post-dose): 4.94 ng/mL | concentration at 96 h (human, in vivo, sc, 4 mg, Measured serum anastrozole, individual subject, 96 h post-dose): 4.36 ng/mL | concentration at 168 h (human, in vivo, sc, 4 mg, Measured serum anastrozole, individual subject, 168 h post-dose): 2.84 ng/mL | concentration at 1 h (human, in vivo, sc, 4 mg, Measured serum anastrozole, mean, 1 h post-dose): 0.38 ng/mL | concentration at 2 h (human, in vivo, sc, 4 mg, Measured serum anastrozole, mean, 2 h post-dose): 0.7 ng/mL | concentration at 4 h (human, in vivo, sc, 4 mg, Measured serum anastrozole, mean, 4 h post-dose): 1.37 ng/mL | concentration at 6 h (human, in vivo, sc, 4 mg, Measured serum anastrozole, mean, 6 h post-dose): 2.58 ng/mL | concentration at 8 h (human, in vivo, sc, 4 mg, Measured serum anastrozole, mean, 8 h post-dose): 3.44 ng/mL | concentration at 12 h (human, in vivo, sc, 4 mg, Measured serum anastrozole, mean, 12 h post-dose): 4.06 ng/mL | concentration at 24 h (human, in vivo, sc, 4 mg, Measured serum anastrozole, mean): 4.84 ng/mL | concentration at 48 h (human, in vivo, sc, 4 mg, Measured serum anastrozole, mean, 48 h post-dose): 5.06 ng/mL | concentration at 72 h (human, in vivo, sc, 4 mg, Measured serum anastrozole, mean, 72 h post-dose): 4.96 ng/mL | concentration at 96 h (human, in vivo, sc, 4 mg, Measured serum anastrozole, mean, 96 h post-dose): 4.62 ng/mL | concentration at 168 h (human, in vivo, sc, 4 mg, Measured serum anastrozole, mean, 168 h post-dose): 3.57 ng/mL | concentration at 504 h (human, in vivo, sc, 4 mg, Measured serum anastrozole, mean, 504 h post-dose): 1.47 ng/mL | concentration at 1008 h (human, in vivo, sc, 4 mg, Measured serum anastrozole, mean, 1008 h post-dose): 0.49 ng/mL | concentration at 1344 h (human, in vivo, sc, 4 mg, Measured serum anastrozole, mean, 1344 h post-dose): 0.22 ng/mL | concentration at 1680 h (human, in vivo, sc, 4 mg, Measured serum anastrozole, mean, 1680 h post-dose): 0.1 ng/mL | concentration at 2016 h (human, in vivo, sc, 4 mg, Measured serum anastrozole, mean, 2016 h post-dose): 0.04 ng/mL | concentration at 1 h (human, in vivo, sc, 4 mg, Measured serum anastrozole, median, 1 h post-dose): 0.32 ng/mL | concentration at 2 h (human, in vivo, sc, 4 mg, Measured serum anastrozole, median, 2 h post-dose): 0.62 ng/mL | concentration at 4 h (human, in vivo, sc, 4 mg, Measured serum anastrozole, median, 4 h post-dose): 1.12 ng/mL | concentration at 6 h (human, in vivo, sc, 4 mg, Measured serum anastrozole, median, 6 h post-dose): 3.08 ng/mL | concentration at 8 h (human, in vivo, sc, 4 mg, Measured serum anastrozole, median, 8 h post-dose): 3.5 ng/mL | concentration at 12 h (human, in vivo, sc, 4 mg, Measured serum anastrozole, median, 12 h post-dose): 4.32 ng/mL | concentration at 24 h (human, in vivo, sc, 4 mg, Measured serum anastrozole, median): 4.96 ng/mL | concentration at 48 h (human, in vivo, sc, 4 mg, Measured serum anastrozole, median, 48 h post-dose): 5.05 ng/mL | concentration at 72 h (human, in vivo, sc, 4 mg, Measured serum anastrozole, median, 72 h post-dose): 4.92 ng/mL | concentration at 96 h (human, in vivo, sc, 4 mg, Measured serum anastrozole, median, 96 h post-dose): 4.6 ng/mL | concentration at 168 h (human, in vivo, sc, 4 mg, Measured serum anastrozole, median, 168 h post-dose): 3.58 ng/mL | concentration at 504 h (human, in vivo, sc, 4 mg, Measured serum anastrozole, median, 504 h post-dose): 1.36 ng/mL | concentration at 1008 h (human, in vivo, sc, 4 mg, Measured serum anastrozole, median, 1008 h post-dose): 0.4 ng/mL | concentration at 1344 h (human, in vivo, sc, 4 mg, Measured serum anastrozole, median, 1344 h post-dose): 0.16 ng/mL | concentration at 2016 h (human, in vivo, sc, 4 mg, plasma anastrozole concentration after 12 weeks, below limit of quantitation in most participants after 12 weeks): < 0.1 ng/mL | Measured serum anastrozole (individual subject, 1 h post-dose, 60 min): 0.215 ng/mL and 0.525 ng/mL and 0.218 ng/mL and 0.515 ng/mL and 0.394 ng/mL and 0.127 ng/mL and 0.855 ng/mL and 0.321 ng/mL and 0.243 ng/mL and 0.751 ng/mL | Measured serum anastrozole (individual subject, 2 h post-dose, 120 min): 0.404 ng/mL and 0.615 ng/mL and 1.30 ng/mL and 0.887 ng/mL and 0.831 ng/mL and 0.306 ng/mL and 1.04 ng/mL and 0.596 ng/mL and 0.509 ng/mL and 0.180 ng/mL and 1.02 ng/mL | Measured serum anastrozole (individual subject, 4 h post-dose, 240 min): 1.03 ng/mL and 2.97 ng/mL and 2.23 ng/mL and 0.902 ng/mL and 1.50 ng/mL and 0.582 ng/mL and 2.11 ng/mL | Measured serum anastrozole (individual subject, 6 h post-dose, 360 min): 3.11 ng/mL and 3.07 ng/mL and 3.42 ng/mL (2×) and 1.63 ng/mL and 3.21 ng/mL and 1.62 ng/mL and 0.651 ng/mL | Measured serum anastrozole (individual subject, 8 h post-dose, 480 min): 4.28 ng/mL and 3.41 ng/mL and 3.48 ng/mL and 4.75 ng/mL and 4.16 ng/mL and 2.18 ng/mL and 3.66 ng/mL and 3.33 ng/mL and 1.06 ng/mL and 3.99 ng/mL | Measured serum anastrozole (individual subject, 12 h post-dose, 720 min): 5.13 ng/mL and 3.27 ng/mL and 4.42 ng/mL and 3.87 ng/mL and 3.32 ng/mL and 4.86 ng/mL and 4.18 ng/mL and 2.25 ng/mL | Measured serum anastrozole (individual subject, 48 h post-dose, 2880 min): 3.95 ng/mL and 5.85 ng/mL and 5.58 ng/mL and 6.07 ng/mL and 4.85 ng/mL and 3.31 ng/mL and 5.28 ng/mL | Measured serum anastrozole (individual subject, 72 h post-dose, 4320 min): 4.72 ng/mL and 5.16 ng/mL and 5.00 ng/mL and 6.29 ng/mL and 5.68 ng/mL and 4.76 ng/mL and 3.66 ng/mL and 4.85 ng/mL | Measured serum anastrozole (individual subject, 96 h post-dose, 5760 min): 4.12 ng/mL and 4.67 ng/mL and 5.17 ng/mL | Measured serum anastrozole (individual subject, 168 h post-dose, 10080 min): 4.35 ng/mL | Measured serum anastrozole (individual subject, 504 h post-dose, 30240 min): 1.70 ng/mL and 1.83 ng/mL and 1.59 ng/mL | Measured serum anastrozole (individual subject, 1008 h post-dose, 60480 min): 0.332 ng/mL and 0.665 ng/mL and 0.505 ng/mL and 0.624 ng/mL | Measured serum anastrozole (individual subject, 1344 h post-dose, 80640 min): 0.144 ng/mL and 0.279 ng/mL | Measured serum anastrozole (individual subject, 1680 h post-dose, 100800 min): 0.143 ng/mL | Measured serum anastrozole, mean (mean, pre-dose): 0.00 ng/mL | Measured serum anastrozole, median (median, pre-dose): 0.00 ng/mL | average Cmax, plasma anastrozole (plasma): 5.30 ng/mL | average terminal half-life, anastrozole (plasma): 336 h | median Tmax for plasma anastrozole (plasma, post-dose): 48 h
